Results published in patent publication US4087461A, “Anti-androgenic steroids” (The Johns Hopkins University, priority 1977, dated 1978).
“Also recorded” adds a separate entry of the source.

Columns and labels:
[1] = target: T1, Δ^5 -3-ketosteroid isomerase (EC 5.3.3.1) (Comamonas testosteroni, UniProt P00947); assay: irreversible inactivation of crystalline purified bacterial Δ^5-3-ketosteroid isomerase by acetylenic steroids (Kitz and Wilson kinetic analysis); assay type: biochemical, Pseudomonas testosteroni
T1 sequence (P00947 whole entry, stated change not applied): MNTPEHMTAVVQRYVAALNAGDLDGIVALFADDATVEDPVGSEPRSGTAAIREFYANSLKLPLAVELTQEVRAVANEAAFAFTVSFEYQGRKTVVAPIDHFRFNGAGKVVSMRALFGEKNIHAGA
Protocol: The inactivation is progressive with time, and half-lives in the range of 150-1320 sec are observed at concentrations of 20-200 μM of the two inhibitors. The enzymatic activities of control vessels which received only equivalent volumes of 1,4-dioxane remained constant at initial activities.
The initial rates of inactivation of the isomerase by (1) and (2) can be analyzed by the method of Kitz and Wilson^8 since very satisfactory pseudo-first-order behavior was observed. It is assumed that [I] (inhibitor) >> [E] (enzyme), that [E.I] (the reversible enzyme-inhibitorcomplex) is at all times in equilibrium with enzyme and inhibitor, and that ^k cat >> ^k inh. The scheme for the formation of EI' (the irreversible enzyme-inhibitor derivative) may then be represented as follows.
If the enzyme-inhibitor solution is diluted extensively prior to assay, the active enzyme (ε) = [E] + [E.I]. Then -d(ε)/dt = k3 [E.I.], and K1 = ([E][I])/[EI]. Thus [formula] where Et = total amount of enzyme in system.
If one defines [formula] Consequently double reciprocal plots of kapp with respect to [I] should be linear, with slopes and intercepts permitting the determination of K1 and k3 where the latter is the overall rate constant for the irreversible inhibition process.
From plots of 1n ε (residual enzymatic activity) vs. time, kapp has been determined at five inhibitor concentrations for both compounds 1 and 2, i.e. estryne and pregnyne. Strict linearity of the semilogarithmic plots has been observed in all cases, over greater than two half-lives. A plot of 1/kapp vs. 1/[I] was linear and gave k3 and K1 (FIG. 1). For compound 1, K1 = 56 μM and k3 = 1.98 × 10^-3 sec^-1, and for compound 2, K1 = 32 μM and k3 = 4.10 × 10^-3 sec^-1.
Studies were performed using crystalline purified bacterial Δ^5 -3-ketosteroid isomerase (from P. testosteroni), under pseudo first order conditions using the kinetic analysis of R. Kitz and I. B. Wilson [J. Biol. Chem., 237, 3245 (1964)].

[2] = tested on: endogenous androgen biosynthesis; assay: study in intact male rats: weights of sex accessory tissue and other organs; assay type: in vivo, male Sprague-Dawley rats; settings: 7 days; for Adrenal weight (± Sem): intact control 27 ± 2; for Dorsal Lateral Prostate weight (± Sem): intact control 244 ± 12; for Seminal Vesicles weight (± Sem): intact control 394 ± 12; for Ventral Prostate weight (± Sem): intact control 421 ± 15; for Kidney weight (± Sem): intact control 1260 ± 63; for Testis weight (± Sem): intact control 1650 ± 38
Protocol: Studies with intact male Sprague-Dawley rats (300g body weight) are illustrated for compounds (1) and (2).
Similarly, compound (2), […] rats at a dosage of 20mg per kilo for 7 days produced 20% reduction in weight of the ventral prostate and 28% reduction of the dorsal lateral prostate.
The following data illustrates the inhibiting effect of estryne and pregnyne on Δ^5 -3-ketosteroid isomerase (EC 5.3.3.1) as evidenced by a depression of the wet weight of the sex accessory tissue in the mature male rat treated with the estryne and pregnyne.
A. Male rats were used to assess the effect of estryne on endogenous androgen biosynthesis at varying doses (1-20 mg/kg body weight). […] On the eighth day the animals were sacrificed and the ventral prostate, dorsal lateral prostate, seminal vesicles, testes, kidneys, and adrenals were removed and weighed. Samples of each tissue were preserved in 10% buffered formalin for histological examination.
B. Male rats were treated with 19-norpregnyne by a regimen exactly as described for the estryne.

[3] = target: T2, cytosol androgen receptor (prostate androgen binding protein) (Rattus norvegicus, UniProt P15207); assay: inhibition of nuclear uptake of ^3H-dihydrotestosterone in ventral prostate minces (binding to the prostatic androgen receptor)
T2 construct: freshly minced ventral prostate tissue obtained from rats castrated 24 hours before sacrifice; from tissue; host or cells: ventral prostate minces of castrated rats
T2 sequence (P15207 1-902): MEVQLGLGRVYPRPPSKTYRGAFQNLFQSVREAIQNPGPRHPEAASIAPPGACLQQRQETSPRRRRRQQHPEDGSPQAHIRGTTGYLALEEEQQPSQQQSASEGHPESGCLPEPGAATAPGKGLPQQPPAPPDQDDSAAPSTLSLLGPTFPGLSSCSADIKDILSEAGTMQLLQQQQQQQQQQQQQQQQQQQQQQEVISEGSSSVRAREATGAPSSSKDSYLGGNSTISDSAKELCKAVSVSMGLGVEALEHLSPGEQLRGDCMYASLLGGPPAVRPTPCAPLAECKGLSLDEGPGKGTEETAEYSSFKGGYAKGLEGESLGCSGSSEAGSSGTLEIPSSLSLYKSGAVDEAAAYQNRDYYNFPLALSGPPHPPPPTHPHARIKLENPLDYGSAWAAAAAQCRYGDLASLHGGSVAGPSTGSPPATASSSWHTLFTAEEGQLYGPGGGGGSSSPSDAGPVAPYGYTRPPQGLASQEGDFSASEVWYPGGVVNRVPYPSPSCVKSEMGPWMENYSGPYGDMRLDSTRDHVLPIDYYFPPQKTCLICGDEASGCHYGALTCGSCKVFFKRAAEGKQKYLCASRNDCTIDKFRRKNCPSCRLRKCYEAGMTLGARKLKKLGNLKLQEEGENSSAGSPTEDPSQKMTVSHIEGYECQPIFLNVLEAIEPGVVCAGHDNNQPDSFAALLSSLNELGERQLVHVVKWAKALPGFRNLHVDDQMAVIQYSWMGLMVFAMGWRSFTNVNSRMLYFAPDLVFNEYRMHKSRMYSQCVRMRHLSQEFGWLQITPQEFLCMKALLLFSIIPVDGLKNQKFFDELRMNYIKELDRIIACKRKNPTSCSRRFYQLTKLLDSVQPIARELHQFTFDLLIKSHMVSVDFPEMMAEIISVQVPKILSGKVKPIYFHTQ
Protocol: The binding to the cytosol androgen receptor was determined by the procedure of Fang (5) with modification. […] The amount of radioactivity in the nuclei is expressed as observed counts per minute per 100 μg DNA.

[4] = target: T1, Δ^5 -3-ketosteroid isomerase (EC 5.3.3.1); assay: irreversible inactivation of crystalline purified bacterial Δ^5-3-ketosteroid isomerase by acetylenic steroids (Kitz and Wilson kinetic analysis); assay type: biochemical, Pseudomonas testosteroni; settings: 24 hr at 4° vs. 1 mM potassium phosphate buffer, pH 7.0
[5] = 20mg per kilo per day, i.p. in propylene glycol

SMILES: C[C@]12CC[C@@H]3C(=O)CCC(=O)CC#CC[C@H]3[C@@H]1CCC2=O [Compound 1, 5,10-secoestr-5-yne-3,10,17-trione]
- irreversible inhibition / inactivation of the enzyme ([1]; in words): rapid irreversible inhibition; also recorded: rapid irreversible and complete inactivation of the enzyme; also recorded: Powerful irreversible inhibition
- half-life of enzyme inactivation ([1]; pH 7.0, 20-200 μM of the two inhibitors, in 1,4-dioxane): 2.5 to 22 min
- kinact ([1]; pH 7, pseudo first order conditions, five inhibitor concentrations (10-fold range), read-out: k3, overall rate constant for the irreversible inhibition process): 0.00198 s⁻¹
- Ki ([1]; pseudo first order conditions, five inhibitor concentrations (10-fold range), read-out: K1 (KI), inhibitor dissociation constant): 56 µM
- reduction in weight of the dorsal lateral prostate [2, 5]: 25-30%
- reduction in weight of the ventral prostate [2, 5]: 28%
- reduction in weight of the ventral prostate ([2]; 20mg per kilo per day, i.p. in propylene glycol, listed as estryne): 25-30%
- dose dependence of the effect on prostatic weight ([2]; 1-20 mg/kg, in words): dose dependent
- effect on weight of the adrenal ([2]; in words): no effect
- effect on weight of the kidney ([2]; in words): no effect
- effect on weight of the seminal vesicles ([2]; in words): Only a modest decrease
- effect on weight of the testes ([2]; in words): no effect
- effect on wet weight of the dorsal-lateral prostate ([2]; in words): depresses the wet weight
- effect on wet weight of the ventral prostate ([2]; in words): depresses the wet weight
- Adrenal weight (± Sem) ([2]; estryne 1 mg/kg daily i.p.): 28 ± 2 mg
- Dorsal Lateral Prostate weight (± Sem) ([2]; estryne 1 mg/kg daily i.p.): 212 ± 19 mg
- Seminal Vesicles weight (± Sem) ([2]; estryne 1 mg/kg daily i.p.): 380 ± 18 mg
- Ventral Prostate weight (± Sem) ([2]; estryne 1 mg/kg daily i.p.): 435 ± 23 mg
- Kidney weight (± Sem) ([2]; estryne 1 mg/kg daily i.p.): 1320 ± 68 mg
- Testis weight (± Sem) ([2]; estryne 1 mg/kg daily i.p.): 1650 ± 60 mg
- Adrenal weight (± Sem) ([2]; estryne 5 mg/kg daily i.p.): 26 ± 2 mg
- Dorsal Lateral Prostate weight (± Sem) ([2]; estryne 5 mg/kg daily i.p.): 195 ± 8 mg
- Seminal Vesicles weight (± Sem) ([2]; estryne 5 mg/kg daily i.p.): 368 ± 16 mg
- Ventral Prostate weight (± Sem) ([2]; estryne 5 mg/kg daily i.p.): 385 ± 8 mg
- Kidney weight (± Sem) ([2]; estryne 5 mg/kg daily i.p.): 1090 ± 39 mg
- Testis weight (± Sem) ([2]; estryne 5 mg/kg daily i.p.): 1590 ± 54 mg
- Adrenal weight (± Sem) ([2]; estryne 10 mg/kg daily i.p.): 30 ± 2 mg
- Dorsal Lateral Prostate weight (± Sem) ([2]; estryne 10 mg/kg daily i.p.): 188 ± 6 mg
- Seminal Vesicles weight (± Sem) ([2]; estryne 10 mg/kg daily i.p.): 387 ± 14 mg
- Ventral Prostate weight (± Sem) ([2]; estryne 10 mg/kg daily i.p.): 364 ± 25 mg
- Kidney weight (± Sem) ([2]; estryne 10 mg/kg daily i.p.): 1150 ± 42 mg
- Testis weight (± Sem) ([2]; estryne 10 mg/kg daily i.p.): 1580 ± 59 mg
- Adrenal weight (± Sem) ([2]; estryne 20 mg/kg daily i.p.): 30 ± 3 mg
- Dorsal Lateral Prostate weight (± Sem) ([2]; estryne 20 mg/kg daily i.p.): 177 ± 15 mg
- Seminal Vesicles weight (± Sem) ([2]; estryne 20 mg/kg daily i.p.): 309 ± 23 mg
- Ventral Prostate weight (± Sem) ([2]; estryne 20 mg/kg daily i.p.): 302 ± 28 mg
- Kidney weight (± Sem) ([2]; estryne 20 mg/kg daily i.p.): 1040 ± 35 mg
- Testis weight (± Sem) ([2]; estryne 20 mg/kg daily i.p.): 1420 ± 64 mg
- inhibition of nuclear uptake of ^3H-dihydrotestosterone ([3]; 2 × 10^-6 M with ^3H-DHT 2 × 10^-9 M): approximately 50%
- remaining activity at 2 µM ([3]; rat, 1 h, pH 7.4, steroid 2 × 10^-6 M with ^3H-DHT 2 × 10^-9 M, read-out: nuclear uptake of ^3H-DHT, % Control): 56%
- CPM/100 DNA (nuclear uptake of ^3H-DHT) ([3]; steroid 2 × 10^-6 M with ^3H-DHT 2 × 10^-9 M, control 8,471): 4,771 CPM/100 DNA
- restoration of enzymatic activity by prolonged dialysis [4]: inability to restore enzymatic activity
